Consider 23 compounds from patent US11807644B2 (PMV Pharmaceuticals, Inc., priority 2020, dated 2023).

In this assay the target is T1, recombinant His-tag Y220C p53 DBD protein (Homo sapiens, UniProt P04637, Y220C).
T1 construct: recombinant His-tag Y220C p53 DBD protein (amino acids #˜94-312)
The assay is described as follows: In vitro DNA binding activity assay (TR-FRET): binding of His-tag Y220C p53 DBD to biotin-labeled consensus DNA. Particulars: for Y220C SC150 (μM): SC150 = concentration to increase DNA binding by […], His-tag Y220C p53 DBD, biotin-labeled consensus DNA; for SC150 (μM): concentration to increase DNA binding by […], incubated at either 27° C. or 29° C. for 60 min. It is filed as biochemical. In general terms: In TR-FRET formats the signal depends on donor and acceptor labels being close together.

For the compound `CN1CC[C@@H](Nc2cccc3c2cc(-c2noc(CNC(=O)c4cccc(C(C)(C)O)c4)n2)n3CC(F)(F)F)[C@@H](F)C1` [Compound 549B, N-{[3-(4-{[(3S,4R)-3-fluoro-1-methylpiperidin-4-yl]amino}-1-(2,2,2-trifluoroethyl)-1H-indol-2-yl)-1,2,4-oxadiazol-5-yl]methyl}-3-(2-hydroxypropan-2-yl)benzamide], the “Y220C SC150 (μM)” value is on record as “* (* = 0 μM ≤ SC150 < 0.1 μM)”.
In the case of `CN1CC[C@@H](Nc2cccc3c2cc(-c2noc(CNC(=O)c4ccc(C(C)(C)O)s4)n2)n3CC(F)(F)F)[C@@H](F)C1` [Compound 424B, N-[[3-[4-[[(3S,4R)-3-fluoro-1-methyl-4-piperidyl]amino]-1-(2,2,2-trifluoroethyl)indol-2-yl]-1,2,4-oxadiazol-5-yl]methyl]-5-(1-hydroxy-1-methyl-ethyl)thiophene-2-carboxamide], the “Y220C SC150 (μM)” value is reported as “* (* = 0 μM ≤ SC150 < 0.1 μM)”.
`CN1CC[C@@H](Nc2cccc3c2cc(-c2noc(CNC(=O)c4ccsc4)n2)n3CC(F)(F)F)[C@@H](F)C1` [Compound 189B, N-{[3-(4-{[(3S,4R)-3-fluoro-1-methylpiperidin-4-yl]amino}-1-(2,2,2-trifluoroethyl)-1H-indol-2-yl)-1,2,4-oxadiazol-5-yl]methyl}thiophene-3-carboxamide]: the “Y220C SC150 (μM)” value is recorded as “* (* = 0 μM ≤ SC150 < 0.1 μM)”.
The same measure, in the same setting: then `COCC1(n2ccc(C(=O)NCc3nc(-c4cc5c(N[C@@H]6CCOC[C@@H]6F)cccc5n4CC(F)(F)F)no3)c2)CC1` [Compound 495B, N-{[3-(4-{[(3R,4R)-3-fluorooxan-4-yl]amino}-1-(2,2,2-trifluoroethyl)-1H-indol-2-yl)-1,2,4-oxadiazol-5-yl]methyl}-1-[1-(methoxymethyl)cyclopropyl]-1H-pyrrole-3-carboxamide], with “* (* = 0 μM ≤ SC150 < 0.1 μM)”.
Regarding `COc1cccc(-c2cc3c(NC4CCS(=O)(=O)CC4)cccc3n2CC(F)(F)F)c1` [Compound 13A, 4-{[2-(3-methoxyphenyl)-1-(2,2,2-trifluoroethyl)-1H-indol-4-yl]amino}-1λ^6-thiane-1,1-dione], the “SC150 (μM)” value is given as “+++ (+++ = 5 μM ≤ SC150 < 10 μM)”.
`COc1ccccc1C(=O)NCc1nnc(-c2cc3c(NC4CCN(C)CC4)cccc3n2CC(F)(F)F)s1` [Compound 66B, 2-methoxy-N-[(5-{4-[(1-methylpiperidin-4-yl)amino]-1-(2,2,2-trifluoroethyl)-1H-indol-2-yl}-1,3,4-thiadiazol-2-yl)methyl]benzamide]: the “Y220C SC150 (μM)” value is recorded as “* (* = 0 μM ≤ SC150 < 0.1 μM)”.
As for `C[C@H]1C[C@H]1C(=O)NCc1nnc(-c2cc3c(NC4CCN(C)CC4)cccc3n2CC(F)(F)F)s1` (racemic) [Compound 33B, (+/−)-(1R,2S)-2-methyl-N-[(5-{4-[(1-methylpiperidin-4-yl)amino]-1-(2,2,2-trifluoroethyl)-1H-indol-2-yl}-1,3,4-thiadiazol-2-yl)methyl]cyclopropane-1-carboxamide], the “Y220C SC150 (μM)” value is “** (** = 0.1 μM ≤ SC150 < 0.5 μM)”.
Consider `CN1CC[C@@H](Nc2cccc3c2cc(-c2noc(CNC(=O)c4cnn(-c5ccccc5)c4)n2)n3CC(F)(F)F)[C@@H](F)C1` [Compound 308B, N-{[3-(4-{1[(3S,4R)-3-fluoro-1-methylpiperidin-4-yl]amino}-1-(2,2,2-trifluoroethyl)-1H-indol-2-yl)-1,2,4-oxadiazol-5-yl]methyl}-1-phenyl-1H-pyrazole-4-carboxamide], for which the “Y220C SC150 (μM)” value is on record as “* (* = 0 μM ≤ SC150 < 0.1 μM)”.
Turning to `CN1CC[C@@H](Nc2cccc3c2cc(-c2noc(CNC(=O)c4c[nH]c(C(C)(C)C)c4)n2)n3CC(F)(F)F)[C@@H](F)C1` [Compound 484B, 5-tert-butyl-N-{[3-(4-{1[(3S,4R)-3-fluoro-1-methylpiperidin-4-yl]amino}-1-(2,2,2-trifluoroethyl)-1H-indol-2-yl)-1,2,4-oxadiazol-5-yl]methyl}-1H-pyrrole-3-carboxamide], the “Y220C SC150 (μM)” value was “* (* = 0 μM ≤ SC150 < 0.1 μM)”.
As for `CN1CC[C@H](Nc2cccc3c2cc(-c2ccc(CNC(=O)C4CC4)cc2)n3CC(F)(F)F)[C@H](F)C1` (racemic) [Compound 46A, (+/−)-N-{[4-(4-{[(3R,4S)-3-fluoro-1-methylpiperidin-4-yl]amino}-1-(2,2,2-trifluoroethyl)-1H-indol-2-yl)phenyl]methyl}cyclopropanecarboxamide], the “SC150 (μM)” value was “+ (+ = 0 μM ≤ SC150 < 2 μM)”.
Turning to `CCN1CC[C@@H](Nc2cccc3c2cc(-c2noc(CNC(=O)c4ccn(C5CCOCC5)c4)n2)n3CC(F)(F)F)[C@@H](F)C1` [Compound 333B, N-{[3-(4-{[(3S,4R)-1-ethyl-3-fluoropiperidin-4-yl]amino}-1-(2,2,2-trifluoroethyl)-1H-indol-2-yl)-1,2,4-oxadiazol-5-yl]methyl}-1-(oxan-4-yl)-1H-pyrrole-3-carboxamide], the “Y220C SC150 (μM)” value is reported as “* (* = 0 μM ≤ SC150 < 0.1 μM)”.
As to `CN1CC[C@@H](Nc2cccc3c2cc(-c2noc(CNC(=O)[C@@H]4C[C@H]4c4ccccc4F)n2)n3CC(F)(F)F)[C@@H](F)C1` [Compound 224B, (1R,2R)-N-{[3-(4-{[(3S,4R)-3-fluoro-1-methylpiperidin-4-yl]amino}-1-(2,2,2-trifluoroethyl)-1H-indol-2-yl)-1,2,4-oxadiazol-5-yl]methyl}-2-(2-fluorophenyl)cyclopropane-1-carboxamide], the “Y220C SC150 (μM)” value is reported as “* (* = 0 μM ≤ SC150 < 0.1 μM)”.
Regarding `CCN1CC[C@H](Nc2cccc3c2cc(-c2noc(CNC(=O)c4ccn(CCOC)c4)n2)n3CC(F)(F)F)[C@H](F)C1` [Compound 273B, N-{[3-(4-{[(3R,4S)-1-ethyl-3-fluoropiperidin-4-yl]amino}-1-(2,2,2-trifluoroethyl)-1H-indol-2-yl)-1,2,4-oxadiazol-5-yl]methyl}-1-(2-methoxyethyl)-1H-pyrrole-3-carboxamide], the “Y220C SC150 (μM)” value was “* (* = 0 μM ≤ SC150 < 0.1 μM)”.
For `N#Cc1ccc(C(=O)NCc2ccc(-c3cc4c(NC5CCS(=O)(=O)CC5)cccc4n3CC(F)(F)F)cc2)cc1` [Compound 16A, 4-cyano-N-[(4-{4-[(1,1-dioxo-1λ^6-thian-4-yl)amino]-1-(2,2,2-trifluoroethyl)-1H-indol-2-yl}phenyl)methyl]benzamide], the “SC150 (μM)” value was “++ (++ = 2 μM ≤ SC150 < 5 μM)”.
For `CO[C@H]1CCC[C@@H]1n1ccc(C(=O)NCc2nc(-c3cc4c(N[C@@H]5CCN(C)C[C@@H]5F)cccc4n3CC(F)(F)F)no2)c1` (relative stereo) [Compound 355B], the “Y220C SC150 (μM)” value is reported as “* (* = 0 μM ≤ SC150 < 0.1 μM)”.
On to `COc1ccc(NCc2ccc(-c3cc4c(NC5CCN(C6CCOCC6)CC5)cccc4n3CC(F)(F)F)cc2)cc1` [Compound 33A, 2-(4-{[(4-methoxyphenyl)amino]methyl}phenyl)-N-[1-(oxan-4-yl)piperidin-4-yl]-1-(2,2,2-trifluoroethyl)-1H-indol-4-amine], for which the “SC150 (μM)” value was “++ (++ = 2 μM ≤ SC150 < 5 μM)”.
With `CN1CC[C@@H](Nc2cccc3c2cc(-c2noc(CNC(=O)c4cnn(CCF)c4)n2)n3CC(F)(F)F)[C@@H](F)C1` [Compound 301B], the “Y220C SC150 (μM)” value is given as “* (* = 0 μM ≤ SC150 < 0.1 μM)”.
As to `CN1CC[C@@H](Nc2cccc3c2cc(-c2noc(CNC(=O)c4ccn(C5COC5)c4)n2)n3CC(F)(F)F)[C@@H](F)C1` [Compound 379B, N-{[3-(4-{[(3S,4R)-3-fluoro-1-methylpiperidin-4-yl]amino}-1-(2,2,2-trifluoroethyl)-1H-indol-2-yl)-1,2,4-oxadiazol-5-yl]methyl}-1-(oxetan-3-yl)-1H-pyrrole-3-carboxamide], the “Y220C SC150 (μM)” value is on record as “* (* = 0 μM ≤ SC150 < 0.1 μM)”.
On to `CN1CC[C@@H](Nc2cccc3c2cc(-c2noc(CNC(=O)c4csc(C(C)(C)CO)n4)n2)n3CC(F)(F)F)[C@@H](F)C1` [Compound 532B, N-{[3-(4-{[(3S,4R)-3-fluoro-1-methylpiperidin-4-yl]amino}-1-(2,2,2-trifluoroethyl)-1H-indol-2-yl)-1,2,4-oxadiazol-5-yl]methyl}-2-(1-hydroxy-2-methylpropan-2-yl)-1,3-thiazole-4-carboxamide], for which the “Y220C SC150 (μM)” value is “* (* = 0 μM ≤ SC150 < 0.1 μM)”.
Still for that read-out and setting: then `CN1CC[C@@H](Nc2cccc3c2cc(-c2nnc(CNC(=O)C4COC4)s2)n3CC(F)(F)F)[C@@H](F)C1` (racemic) [Compound 36B, (+/−)-N-{[5-(4-{[(3R,4S)-3-fluoro-1-methylpiperidin-4-yl]amino}-1-(2,2,2-trifluoroethyl)-1H-indol-2-yl)-1,3,4-thiadiazol-2-yl]methyl}oxetane-3-carboxamide], with “** (** = 0.1 μM ≤ SC150 < 0.5 μM)”; and `CC(C)c1nc(C(=O)NCc2nc(-c3cc4c(N[C@@H]5CCN(C)C[C@@H]5F)cccc4n3CC(F)(F)F)no2)co1` [Compound 430B, N-{[3-(4-{[(3S,4R)-3-fluoro-1-methylpiperidin-4-yl]amino}-1-(2,2,2-trifluoroethyl)-1H-indol-2-yl)-1,2,4-oxadiazol-5-yl]methyl}-2-(propan-2-yl)-1,3-oxazole-4-carboxamide], with “* (* = 0 μM ≤ SC150 < 0.1 μM)”.
Take `CN1CC[C@H](Nc2cccc3c2cc(-c2ccc(CNC(=O)c4ccccc4)cc2)n3CC(F)(F)F)[C@H](F)C1` (racemic) [Compound 45A, (+/−)-N-{[4-(4-{[(3R,4S)-3-fluoro-1-methylpiperidin-4-yl]amino}-1-(2,2,2-trifluoroethyl)-1H-indol-2-yl)phenyl]methyl}benzamide]: the “SC150 (μM)” value was “+ (+ = 0 μM ≤ SC150 < 2 μM)”.
Turning to `CN1CC[C@H](Nc2cccc3c2cc(-c2noc(CNC(=O)c4ccn(C)c4)n2)n3CC(F)(F)F)[C@H](F)C1` [Compound 182B, N-{[3-(4-{[(3R,4S)-3-fluoro-1-methylpiperidin-4-yl]amino}-1-(2,2,2-trifluoroethyl)-1H-indol-2-yl)-1,2,4-oxadiazol-5-yl]methyl}-1-methyl-1H-pyrrole-3-carboxamide], the “Y220C SC150 (μM)” value was “* (* = 0 μM ≤ SC150 < 0.1 μM)”.
